The text below walks through data of patent publication US9957271B2, “Substituted bicyclic aza-heterocycles and analogues as sirtuin modulators” (GlaxoSmithKline, LLC, priority 2012, dated 2018).

The target in this experiment is T1, SIRT1 (Homo sapiens, UniProt Q96EB6).
T1 sequence (Q96EB6 1-747): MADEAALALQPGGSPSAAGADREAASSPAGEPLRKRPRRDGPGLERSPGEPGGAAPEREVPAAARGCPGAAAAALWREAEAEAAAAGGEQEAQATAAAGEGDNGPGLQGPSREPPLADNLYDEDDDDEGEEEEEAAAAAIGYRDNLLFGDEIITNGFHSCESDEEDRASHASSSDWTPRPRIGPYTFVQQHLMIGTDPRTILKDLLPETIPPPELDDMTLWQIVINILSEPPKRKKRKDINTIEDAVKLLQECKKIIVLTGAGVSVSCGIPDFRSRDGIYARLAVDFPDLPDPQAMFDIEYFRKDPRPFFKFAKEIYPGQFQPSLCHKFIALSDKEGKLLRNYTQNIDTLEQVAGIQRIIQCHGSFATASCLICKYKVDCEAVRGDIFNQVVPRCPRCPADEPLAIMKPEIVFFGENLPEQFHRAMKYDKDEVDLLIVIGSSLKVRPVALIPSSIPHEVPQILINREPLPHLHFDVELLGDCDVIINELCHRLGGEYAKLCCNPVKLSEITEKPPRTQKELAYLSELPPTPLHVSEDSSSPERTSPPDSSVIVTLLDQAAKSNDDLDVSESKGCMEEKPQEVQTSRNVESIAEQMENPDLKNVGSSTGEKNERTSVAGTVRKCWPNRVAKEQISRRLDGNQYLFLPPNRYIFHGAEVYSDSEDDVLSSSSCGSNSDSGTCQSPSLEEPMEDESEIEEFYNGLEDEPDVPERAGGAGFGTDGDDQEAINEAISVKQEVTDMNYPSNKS
Briefly: Trp mass spectrometry assay of SIRT1 activity. The experiment is classed as biochemical. Conditions: for Trp EC1.5 (μM): concentration giving 150% activation of SIRT1; for Emax: read-out: Trp % Fold Act. The text has this: Mass spectrometry based assays were used to identify modulators of SIRT1 activity. The TAMRA based assay utilized a peptide having 20 amino acid residues as follows: Ac-EE-K(biotin)-[…](Ac)NleSTEG-K(5TMR)-EE-NH2 (SEQ ID NO: 1), wherein K(Ac) is an acetylated lysine residue and Nle is a norleucine. The peptide was labeled with the fluorophore 5TMR (excitation 540 nm/emission 580 nm) at the C-terminus. The sequence of the peptide substrate was based on p53 with several modifications. In addition, the methionine residue naturally present in the sequence was replaced with the norleucine because the methionine may be susceptible to oxidation during synthesis and purification. The Trp based assay utilized a peptide having an amino acid residues as follows: Ac-R-H-K-K(Ac)-W-NH2 (SEQ ID NO: 2).
The Trp mass spectrometry assay was conducted as follows. 0.5 μM peptide substrate and 120 μM βNAD^+ were incubated with 10 nM SIRT1 for 25 minutes at 25° C. in a reaction buffer (50 mM HEPES pH 7.5, […], 1 mM DTT, 0.05% BSA). The SIRT1 protein was obtained by cloning the SirT1 gene into a T7-promoter containing vector, which was then expressed in BL21(DE3) bacterial cells and purified as described in further detail below. Test compound was added at varying concentrations to this reaction mixture and the resulting reactions were monitored. After the 25 minute incubation with SIRT1, 10 μL of 10% formic acid was added to stop the reaction. The resulting reactions were sealed and frozen for later mass spec analysis. The relative SIRT1 activity was then determined by measuring the amount of O-acetyl-ADP-ribose (OAADPR) formed (or, alternatively, the amount of deacetylated Trp peptide generated) by the NAD-dependent sirtuin deacetylation reaction in the presence of varying concentrations of the test compound versus control reactions lacking the test compound. The degree to which the test agent activated deacetylation by SIRT1 was expressed as EC1.5 (i.e., the concentration of compound required to increase SIRT1 activity by 50% over the control lacking test compound), and Percent Maximum Activation (i.e., the maximum activity relative to control (100%) obtained for the test compound).
A control for inhibition of sirtuin activity was conducted by adding 1 μL of 500 mM nicotinamide as a negative control at the start of the reaction (e.g., permits determination of maximum sirtuin inhibition). A control for activation of sirtuin activity was conducted using 10 nM of sirtuin protein, with 1 μL of DMSO in place of compound, to determine the amount of deacetylation of the substrate at a given time point within the linear range of the assay. This time point was the same as that used for test compounds and, within the linear range, the endpoint represents a change in velocity.
For the above assay, SIRT1 protein was expressed and purified as follows. The SirT1 gene was cloned into a T7-promoter containing vector and transformed into BL21(DE3). The protein was expressed by induction with 1 mM IPTG as an N-terminal His-tag fusion protein at 18° C. overnight and harvested at 30,000×g. Cells were lysed with lysozyme in lysis buffer (50 mM Tris-HCl, 2 mM Tris[2-carboxyethyl]phosphine (TCEP), 10 μM ZnCl2, 200 mM NaCl) and further treated with sonication for […] for complete lysis. The protein was purified over a Ni-NTA column (Amersham) and fractions containing pure protein were pooled, concentrated and run over a sizing column (Sephadex S200 26/60 global). The peak containing soluble protein was collected and run on an Ion-exchange column (MonoQ). Gradient elution (200 mM-500 mM NaCl) yielded pure protein. This protein was concentrated and dialyzed against dialysis buffer (20 mM Tris-HCl, 2 mM TCEP) overnight. The protein was aliquoted and frozen at −80° C. until further use.

Setting [1] is: Trp assay, percent maximum fold activation.
Where [2] appears, read: percent maximum fold activation of SIRT1, Trp peptide substrate.

SMILES strings stand for the structures. Where two headings read alike, the source gives them in different places.

Take `Cc1nc2ccc(N3CC[C@H](N(C)C)C3)nn2c1C(=O)Nc1ccc(F)cn1` [Compound 872]: the “Trp EC1.5 (μM)” value (Trp assay) is “C (EC1.5>25 μM)”. In addition, under setting [1], the Emax was under 350%.

For the compound `O=C(Nc1ccncn1)c1cnn2ccc(N3CCC(C(F)(F)F)CC3)nc12` [Compound 1063], the Emax under setting [2] is at least 350%. For the compound `O=C(Nc1ccccn1)c1cnc2ccc(N3CCC(F)(F)CC3)nn12` [Compound 927], the “Trp EC1.5 (μM)” value (Trp assay) was “B (EC1.5 1-25 μM)”. Moreover, the Emax under setting [1] is at least 350%. For the compound `Cc1nn2ccc(N3CCC[C@@H]3C(F)(F)F)nc2c1C(=O)Nc1ccncn1` [Compound 1068], under setting [2], the Emax is at least 350%.

For `O=C(Nc1cncc(F)c1)c1cnc2ccc(N3CCCC3C(F)(F)F)nn12` (stereo not shown) [Compound 967], the Emax under setting [1] is at least 350%. Take `O=C(Nc1ccc(F)cn1)c1cnc2ccc(N3CCC(F)(F)C3)nn12` [Compound 907]: the “Trp EC1.5 (μM)” value (Trp assay) is recorded as “B (EC1.5 1-25 μM)”. For the same compound, the Emax under setting [1] was under 350%. `Cc1cncc(NC(=O)c2cnc3ccc(N4CCC[C@@H]4C)nn23)c1` [Compound 1058]: the Emax under setting [2] was under 350%. For the compound `O=C(Nc1ccccn1)c1cnc2ccc(-c3cccc(OC[C@H](O)CO)c3)nn12` [Compound 847], the “Trp EC1.5 (μM)” value (Trp assay) is recorded as “A (EC1.5<1 μM)”. Further, under setting [1], the Emax was at least 350%.

In the case of `O=C(Nc1ccncn1)c1cnc2ccc(N3CCC[C@H](F)C3)nn12` [Compound 993], the Emax under setting [1] was at least 350%. For the compound `CN(C)c1cnnc(NC(=O)c2cnc3ccc(N4CC[C@H](F)C4)nn23)c1` [Compound 924], for the setting “Trp assay”, the “Trp EC1.5 (μM)” value is recorded as “B (EC1.5 1-25 μM)”. Besides, under setting [1], the Emax was under 350%. The corresponding values for `O=C(Nc1ccncc1F)c1cnc2ccc(N3CCCC(C(F)(F)F)C3)nn12` (stereo not shown) [Compound 931] are “A (EC1.5<1 μM)” and at least 350%. On to `Cc1nc2ccc(N3CC[C@H](F)C3)nn2c1C(=O)Nc1ncccn1` [Compound 852], for which the “Trp EC1.5 (μM)” value (Trp assay) is recorded as “B (EC1.5 1-25 μM)”. Besides, the Emax under setting [1] was at least 350%. The corresponding values for `CN(C)[C@H]1CCN(c2ccc3ncc(C(=O)Nc4ccc(F)cn4)n3n2)C1` [Compound 874] are “A (EC1.5<1 μM)” and under 350%.

For the compound `Cc1nc(NC(=O)c2cnn3ccc(N4CCCC4C)nc23)sc1C` (stereo not shown) [Compound 1038], under setting [2], the Emax was under 350%. Still for that read-out and setting: as for `Cc1nn2ccc(N3CCC[C@@H]3C(F)(F)F)nc2c1C(=O)Nc1cc(-c2cnco2)ccn1` [Compound 1087], the figure is at least 350%. Regarding `CN(C)[C@H]1CCN(c2ccc3ncc(C(=O)Nc4cnccn4)n3n2)C1` [Compound 873], the “Trp EC1.5 (μM)” value (Trp assay) was “B (EC1.5 1-25 μM)”. For the same compound, the Emax under setting [1] was at least 350%.

For `O=C(Nc1cccc(-c2cnco2)n1)c1cnn2ccc(N3CCC(C(F)(F)F)CC3)nc12` [Compound 1083], under setting [2], the Emax was at least 350%. Same read-out and setting: for `COc1nccc(NC(=O)c2cnn3ccc(N4CCC(C(F)(F)F)CC4)nc23)n1` [Compound 1064] the value was at least 350%. With `O=C(Nc1cccnc1)c1cnn2ccc(N3CCCC3C(F)(F)F)nc12` (stereo not shown) [Compound 1000], under setting [2], the Emax is at least 350%. On the same count and under the same terms, for `CC1CCCN1c1ccn2ncc(C(=O)Nc3cnccn3)c2n1` (stereo not shown) [Compound 1041] the value was under 350%. In the case of `O=C(Nc1cccnc1)c1cnc2ccc(N3CCC[C@H](F)C3)nn12` [Compound 987], under setting [1], the Emax was at least 350%. Consider `O=C(Nc1ccccn1)c1cnn2ccc(N3CCC[C@H]3C(F)(F)F)nc12` [Compound 1029], for which, under setting [2], the Emax is at least 350%. On to `O=C(Nc1cccnc1)c1cnc2ccc(N3CC[C@H](O)C3)nn12` [Compound 982], for which the Emax under setting [1] was under 350%.

Consider `O=C(Nc1ncccn1)c1cnc2ccc(N3CC[C@H](F)C3)nn12` [Compound 854], for which the “Trp EC1.5 (μM)” value (Trp assay) is “B (EC1.5 1-25 μM)”. For the same compound, the Emax under setting [1] was under 350%. The corresponding values for `Cc1nc2ccc(N3CC[C@H](F)C3)nn2c1C(=O)Nc1ccc(F)cn1` [Compound 844] are “B (EC1.5 1-25 μM)” and under 350%. In the case of `O=C(Nc1ccncn1)c1cnn2ccc(N3CCC[C@H]3C(F)(F)F)nc12` [Compound 1025], the Emax under setting [2] was at least 350%. On to `CN(C)c1ccnc(NC(=O)c2cnc3ccc(-c4cccc(OC[C@H](O)CO)c4)nn23)c1` [Compound 878], for which the “Trp EC1.5 (μM)” value (Trp assay) is on record as “B (EC1.5 1-25 μM)”. Moreover, the Emax under setting [1] is under 350%. As to `Cc1nn2ccc(N3CCC[C@@H]3C(F)(F)F)nc2c1C(=O)Nc1cccc(-c2cnco2)n1` [Compound 1086], under setting [2], the Emax is at least 350%.

For the compound `Cc1cncc(NC(=O)c2cnn3ccc(N4CCCC4C)nc23)c1` (stereo not shown) [Compound 1045], under setting [2], the Emax is under 350%. Consider `CO[C@H]1CCN(c2ccc3ncc(C(=O)Nc4ccc(F)cn4)n3n2)C1` [Compound 935], for which the “Trp EC1.5 (μM)” value (Trp assay) is “B (EC1.5 1-25 μM)”. Further, the Emax under setting [1] was under 350%. For `C[C@@H]1CN(c2ccc3ncc(C(=O)Nc4cccnn4)n3n2)C[C@H](C)O1` [Compound 996], the Emax under setting [1] was at least 350%. Turning to `O=C(Nc1ccccn1)c1cnn2ccc(N3CCCCC3C(F)(F)F)nc12` (stereo not shown) [Compound 957], the Emax under setting [1] is at least 350%. On to `O=C(Nc1cncc(F)c1)c1cnc2ccc(N3CCCC(C(F)(F)F)C3)nn12` (stereo not shown) [Compound 910], for which the “Trp EC1.5 (μM)” value (Trp assay) is “A (EC1.5<1 μM)”. Besides, under setting [1], the Emax was at least 350%. The corresponding values for `Cc1cc(NC(=O)c2cnc3ccc(N4CC[C@H](F)C4)nn23)nc(C)n1` [Compound 893] are “C (EC1.5>25 μM)” and under 350%. The corresponding values for `Cc1cc(NC(=O)c2cnc3ccc(-c4cccc(OC[C@H](O)CO)c4)nn23)ccn1` [Compound 875] are “C (EC1.5>25 μM)” and under 350%. Take `O=C(Nc1cncc(F)c1)c1cnn2ccc(N3CCC(C(F)(F)F)C3)nc12` (stereo not shown) [Compound 1013]: the Emax under setting [2] was at least 350%. Turning to `C[C@@H]1CN(c2ccc3ncc(C(=O)Nc4cncc(F)c4)n3n2)C[C@H](C)O1` [Compound 997], the Emax under setting [1] is at least 350%. As for `Cc1cncc(NC(=O)c2cnn3ccc(N4CCC[C@@H]4C(F)(F)F)nc23)c1` [Compound 1077], under setting [2], the Emax was at least 350%.

Consider `Cc1nc(NC(=O)c2c(C)nn3ccc(N4CCC[C@@H]4C(F)(F)F)nc23)sc1C` [Compound 1082], for which, under setting [2], the Emax was at least 350%. Consider `C[C@H]1CCCN1c1ccc2ncc(C(=O)Nc3ccncn3)n2n1` [Compound 1057], for which, under setting [2], the Emax is under 350%. `O=C(Nc1cccnn1)c1cnc2ccc(N3CCC(F)(F)C3)nn12` [Compound 904]: the “Trp EC1.5 (μM)” value (Trp assay) was “B (EC1.5 1-25 μM)”. Also, the Emax under setting [1] is at least 350%.
